# Measured values: patent US11344554B2, “Animal and human anti-malarial agents” (Celgene Corporation, priority 2016, dated 2022)
# Test system: Plasmodium falciparum
# Assay: Plasmodium falciparum in vitro [3H]-hypoxanthine parasite growth inhibition assay
# Type: cell-based
# Settings: Erythrocyte, P. falciparum asexual blood stage parasites in human erythrocytes, [3H]-hypoxanthine uptake, read-out: Act Class (IC50 activity level)
row,Structure (SMILES),IC50 [nM]
1,"FC(F)(F)c1cc(Nc2nc3cnc(NC4CCC4)nc3n2C2CCNCC2)cc(C(F)(F)F)c1 [Cpd 86, N8-(3,5-bis(trifluoromethyl)phenyl)-N2-cyclobutyl-9-(piperidin-4-yl)-9H-purine-2,8-diamine]",100 to 200
2,"CC(C)(C)Nc1ncc2nc(Nc3ccc(C(F)(F)F)cc3)n(C3CCN(CCN)CC3)c2n1 [Cpd 5, 9-(1-(2-aminoethyl)piperidin-4-yl)-N2-tert-butyl-N8-(4-(trifluoromethyl)phenyl)-9H-purine-2,8-diamine]",100 to 200
3,"CC1(Nc2ncc3nc(Nc4cccc(C(F)(F)F)c4)n(CCC4CCNC4)c3n2)CCOCC1 (centres unmarked) [Cpd 58, N2-(4-methyltetrahydro-2H-pyran-4-yl)-9-(2-(pyrrolidin-3-yl)ethyl)-N8-(3-(trifluoromethyl)phenyl)-9H-purine-2,8-diamine]",200 to 500
4,"CC(C)(C)Nc1ncc2nc(Nc3ccc(C(F)(F)F)c(Cl)c3)n(C3CCNCC3)c2n1 [Cpd 82, N2-tert-butyl-N8-(3-chloro-4-(trifluoromethyl)phenyl)-9-(piperidin-4-yl)-9H-purine-2,8-diamine]",200 to 500
5,"CN(C)CCCn1c(Nc2cccc(C(F)(F)F)c2)nc2cnc(NC(C)(C)C)nc21 [Cpd 32, N2-tert-butyl-9-(3-(dimethylamino)propyl)-N8-(3-(trifluoromethyl)phenyl)-9H-purine-2,8-diamine]",500 to 1200
6,"FC(F)(F)c1ccc(Nc2nc3cnc(NC4CCCC4)nc3n2C2CCNCC2)cc1Cl [Cpd 92, N8-(3-chloro-4-(trifluoromethyl)phenyl)-N2-cyclopentyl-9-(piperidin-4-yl)-9H-purine-2,8-diamine]",200 to 500
7,"CC(C)(C)Nc1ncc2nc(Nc3ccc(Cl)c(C(F)(F)F)c3)n(C3CCNCC3)c2n1 [Cpd 88, N2-tert-butyl-N8-(4-chloro-3-(trifluoromethyl)phenyl)-9-(piperidin-4-yl)-9H-purine-2,8-diamine]",100 to 200
8,"CC(C)(C)Nc1ncc2nc(Nc3cccc(C(F)(F)F)c3)n(CCC3CCNC3)c2n1 (centres unmarked) [Cpd 18, N2-tert-butyl-9-(2-(pyrrolidin-3-yl)ethyl)-N8-(3-(trifluoromethyl)phenyl)-9H-purine-2,8-diamine]",100 to 200
9,"CC(C)(C)Nc1ncc2nc(Nc3cccc(C(F)(F)F)c3)n(C3CCC4CNCC4C3)c2n1 (centres unmarked) [Cpd 78, N2-tert-butyl-9-(octahydro-1H-isoindol-5-yl)-N8-(3-(trifluoromethyl)phenyl)-9H-purine-2,8-diamine]",500 to 1200
10,"CC(C)(C)Nc1ncc2nc(Nc3cc(Cl)cc(Cl)c3)n(C3CCN(CCN)CC3)c2n1 [Cpd 35, 9-(1-(2-aminoethyl)piperidin-4-yl)-N2-tert-butyl-N8-(3,5-dichlorophenyl)-9H-purine-2,8-diamine]",200 to 500
11,"CC(C)(C)Nc1ncc2nc(Nc3cccc(Cl)c3)n(CCn3ccnc3)c2n1 [Cpd 1, 9-(2-(1H-imidazol-1-yl)ethyl)-N2-tert-butyl-N8-(3-chlorophenyl)-9H-purine-2,8-diamine]",200 to 500
12,"CC(C)(C)Nc1ncc2nc(Nc3cccc(C(F)(F)F)c3)n(CCCN)c2n1 [Cpd 11, 9-(3-aminopropyl)-N2-tert-butyl-N8-(3-(trifluoromethyl)phenyl)-9H-purine-2,8-diamine]",200 to 500
13,"CC1(Nc2ncc3nc(Nc4cccc(Cl)c4)n(CCN4CCCC4)c3n2)CCOCC1 [Cpd 17, N8-(3-chlorophenyl)-N2-(4-methyltetrahydro-2H-pyran-4-yl)-9-(2-(pyrrolidin-1-yl)ethyl)-9H-purine-2,8-diamine]",500 to 1200
14,"CC(C)(C)Nc1ncc2nc(Nc3cccc(C(F)(F)F)c3)n(CC3CCNC3)c2n1 (centres unmarked) [Cpd 24, N2-tert-butyl-9-(pyrrolidin-3-ylmethyl)-N8-(3-(trifluoromethyl)phenyl)-9H-purine-2,8-diamine]",200 to 500
15,"CC1(Nc2ncc3nc(Nc4cccc(C(F)F)c4)n(C4CCNCC4)c3n2)CCOCC1 [Cpd 57, N8-(3-(difluoromethyl)phenyl)-N2-(4-methyltetrahydro-2H-pyran-4-yl)-9-(piperidin-4-yl)-9H-purine-2,8-diamine]",500 to 1200
16,"Clc1cc(Cl)cc(Nc2nc3cnc(NC4CC4)nc3n2C2CCNCC2)c1 [Cpd 34, N2-cyclopropyl-N8-(3,5-dichlorophenyl)-9-(piperidin-4-yl)-9H-purine-2,8-diamine]",200 to 500
17,"CC(C)(C)Nc1ncc2nc(Nc3cc(F)cc(F)c3)n(C3CCNCC3)c2n1 [Cpd 28, N2-tert-butyl-N8-(3,5-difluorophenyl)-9-(piperidin-4-yl)-9H-purine-2,8-diamine]",100 to 200
18,"CC1(Nc2ncc3nc(Nc4ccc(C(F)(F)F)cc4)n(C4CCNCC4)c3n2)CCOCC1 [Cpd 15, N2-(4-methyltetrahydro-2H-pyran-4-yl)-9-(piperidin-4-yl)-N8-(4-(trifluoromethyl)phenyl)-9H-purine-2,8-diamine]",100 to 200
19,"CC(C)(C)Nc1ncc2nc(Nc3cc(Cl)cc(C(F)(F)F)c3)n(C3CCN(CCN)C3)c2n1 (centres unmarked) [Cpd 60, 9-(1-(2-aminoethyl)pyrrolidin-3-yl)-N2-tert-butyl-N8-(3-chloro-5-(trifluoromethyl)phenyl)-9H-purine-2,8-diamine]",200 to 500
20,"CC1(Nc2ncc3nc(Nc4cccc(C(F)(F)F)c4)n(C4CCNCC4)c3n2)CCCC1 [Cpd 59, N2-(1-methylcyclopentyl)-9-(piperidin-4-yl)-N8-(3-(trifluoromethyl)phenyl)-9H-purine-2,8-diamine]",< 100
21,"FC(F)(F)c1cc(Nc2nc3cnc(NC4CC4)nc3n2C2CCNCC2)ccc1Cl [Cpd 80, N8-(4-chloro-3-(trifluoromethyl)phenyl)-N2-cyclopropyl-9-(piperidin-4-yl)-9H-purine-2,8-diamine]",200 to 500
22,"FC(F)(F)c1cc(Nc2nc3cnc(NC4CC4)nc3n2C2CCNCC2)cc(C(F)(F)F)c1 [Cpd 96, N8-(3,5-bis(trifluoromethyl)phenyl)-N2-cyclopropyl-9-(piperidin-4-yl)-9H-purine-2,8-diamine]",100 to 200
23,"CC(C)Nc1ncc2nc(Nc3cc(Cl)cc(Cl)c3)n(C3CCNCC3)c2n1 [Cpd 43, N8-(3,5-dichlorophenyl)-N2-isopropyl-9-(piperidin-4-yl)-9H-purine-2,8-diamine]",< 100
24,"CC(C)Nc1ncc2nc(Nc3cc(Cl)cc(C(F)(F)F)c3)n(C3CCNCC3)c2n1 [Cpd 44, N8-(3-chloro-5-(trifluoromethyl)phenyl)-N2-isopropyl-9-(piperidin-4-yl)-9H-purine-2,8-diamine]",< 100

# The remaining lines, values ahead:
row,IC50 [nM],Structure (SMILES)
1,< 100,"FC(F)(F)c1cc(Cl)cc(Nc2nc3cnc(NC4CC4)nc3n2C2CCNCC2)c1 [Cpd 40, N8-(3-chloro-5-(trifluoromethyl)phenyl)-N2-cyclopropyl-9-(piperidin-4-yl)-9H-purine-2,8-diamine]"
2,< 100,"CC(C)Nc1ncc2nc(Nc3cc(C(F)(F)F)cc(C(F)(F)F)c3)n(C3CCNCC3)c2n1 [Cpd 84, N8-(3,5-bis(trifluoromethyl)phenyl)-N2-isopropyl-9-(piperidin-4-yl)-9H-purine-2,8-diamine]"
3,< 100,"CC(C)(C)Nc1ncc2nc(Nc3ccc(Cl)c(Cl)c3)n(C3CCNCC3)c2n1 [Cpd 6, N2-tert-butyl-N8-(3,4-dichlorophenyl)-9-(piperidin-4-yl)-9H-purine-2,8-diamine]"
4,< 100,"CC1(Nc2ncc3nc(Nc4cc(Cl)cc(Cl)c4)n(C4CCNCC4)c3n2)CC1 [Cpd 41, N8-(3,5-dichlorophenyl)-N2-(1-methylcyclopropyl)-9-(piperidin-4-yl)-9H-purine-2,8-diamine]"
5,< 100,"CC1(Nc2ncc3nc(Nc4cc(Cl)cc(C(F)(F)F)c4)n(C4CCNCC4)c3n2)CCCC1 [Cpd 68, N8-(3-chloro-5-(trifluoromethyl)phenyl)-N2-(1-methylcyclopentyl)-9-(piperidin-4-yl)-9H-purine-2,8-diamine]"
6,< 100,"CC1(Nc2ncc3nc(Nc4cc(F)cc(Cl)c4)n(C4CCNCC4)c3n2)CCOCC1 [Cpd 56, N8-(3-chloro-5-fluorophenyl)-N2-(4-methyltetrahydro-2H-pyran-4-yl)-9-(piperidin-4-yl)-9H-purine-2,8-diamine]"
7,< 100,"CC(C)(C)Nc1ncc2nc(Nc3cc(Cl)cc(C(F)(F)F)c3)n(C3CCN(CCN)CC3)c2n1 [Cpd 39, 9-(1-(2-aminoethyl)piperidin-4-yl)-N2-tert-butyl-N8-(3-chloro-5-(trifluoromethyl)phenyl)-9H-purine-2,8-diamine]"
8,< 100,"CC(C)(C)Nc1ncc2nc(Nc3cc(Cl)cc(Cl)c3)n(C3CCNCC3)c2n1 [Cpd 20, N2-tert-butyl-N8-(3,5-dichlorophenyl)-9-(piperidin-4-yl)-9H-purine-2,8-diamine]"
9,< 100,"CN1CCC(n2c(Nc3ccc(Cl)c(Cl)c3)nc3cnc(NC(C)(C)C)nc32)CC1 [Cpd 36, N2-tert-butyl-N8-(3,4-dichlorophenyl)-9-(1-methylpiperidin-4-yl)-9H-purine-2,8-diamine]"
10,< 100,"CC1(Nc2ncc3nc(Nc4cc(Cl)cc(C(F)(F)F)c4)n(C4CCNCC4)c3n2)CCOCC1 [Cpd 54, N8-(3-chloro-5-(trifluoromethyl)phenyl)-N2-(4-methyltetrahydro-2H-pyran-4-yl)-9-(piperidin-4-yl)-9H-purine-2,8-diamine]"
11,< 100,"CC(C)(C)Nc1ncc2nc(Nc3cc(C(F)(F)F)cc(C(F)(F)F)c3)n(C3CCNCC3)c2n1 [Cpd 49, N8-(3,5-bis(trifluoromethyl)phenyl)-N2-tert-butyl-9-(piperidin-4-yl)-9H-purine-2,8-diamine]"
12,< 100,"CC1(Nc2ncc3nc(Nc4cc(Cl)cc(C(F)(F)F)c4)n(C4CCNCC4)c3n2)CC1 [Cpd 42, N8-(3-chloro-5-(trifluoromethyl)phenyl)-N2-(1-methylcyclopropyl)-9-(piperidin-4-yl)-9H-purine-2,8-diamine]"
13,< 100,"CC(C)(C)Nc1ncc2nc(Nc3cc(Cl)cc(OC(F)(F)F)c3)n(C3CCNCC3)c2n1 [Cpd 48, N2-tert-butyl-N8-(3-chloro-5-(trifluoromethoxy)phenyl)-9-(piperidin-4-yl)-9H-purine-2,8-diamine]"
14,< 100,"CC(C)Nc1ncc2nc(Nc3cc(F)cc(Cl)c3)n(C3CCNCC3)c2n1 [Cpd 63, N8-(3-chloro-5-fluorophenyl)-N2-isopropyl-9-(piperidin-4-yl)-9H-purine-2,8-diamine]"
